In BindingDB's records for patent US20250250264 (Wuhan Humanwell Innovative Drug Research And Development …, 2025):

Target: T1, Kinesin-like protein KIF18A [1-467] (Human, UniProt Q8NI77)
T1 construct: 1-467
T1 sequence (Q8NI77 whole entry): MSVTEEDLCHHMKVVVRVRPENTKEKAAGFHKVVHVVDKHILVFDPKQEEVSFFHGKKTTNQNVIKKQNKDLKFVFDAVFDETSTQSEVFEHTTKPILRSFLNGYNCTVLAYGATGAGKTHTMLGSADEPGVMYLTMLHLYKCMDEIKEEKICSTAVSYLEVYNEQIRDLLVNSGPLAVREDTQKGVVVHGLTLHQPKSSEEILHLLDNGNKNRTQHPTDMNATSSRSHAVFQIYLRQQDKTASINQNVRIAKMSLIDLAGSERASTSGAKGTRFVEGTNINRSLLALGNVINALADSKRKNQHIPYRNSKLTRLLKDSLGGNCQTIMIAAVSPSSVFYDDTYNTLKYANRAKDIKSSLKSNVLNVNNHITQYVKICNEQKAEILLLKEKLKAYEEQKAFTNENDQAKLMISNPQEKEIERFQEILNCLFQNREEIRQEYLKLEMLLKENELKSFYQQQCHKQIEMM
Test: Assay on Inhibition of KIF18A Enzymatic Activity
Method: The reaction system consisted of a test compound, the recombinant protein KIF18A (aa 1-467), ATP (Promega Inc), and an assay buffer. The test compound was prepared into a 0.5 mM stock solution using DMSO (Sigma Inc) and then serially diluted in DMSO. The assay buffer consisted of an aqueous solution of 15 mM Tris, 10 mM MgCl2 (Sigma Inc), 0.01% Pluronic F-68 (Life Technologies Inc), 1 μM paclitaxel (Cytoskeleton Inc), 30 μg/mL porcine tubulin (Cytoskeleton Inc), and 2% DMSO. The KIF18A protein (final concentration: 80 nM) and the compound at different concentrations (1 μL) were added to the prepared assay buffer (50 μL), and the mixture was incubated at room temperature for 15 min. Then, ATP (final concentration: 80 μM) was added to the reaction mixture, and the resulting mixture was incubated at room temperature for 3 h. After the reaction was completed, 5 μL of the ADP-Glo™ reagent and 2.5 μL of the reaction mixture were added to a 384-well plate (Grenier Inc). The resulting mixture was mixed homogeneously, then sealed by an aluminum foil sealing film, and incubated at room temperature in the dark for 40 min. […] After all reactions were completed, the luminescence values of the wells were read on a microplate reader (Molecular Device_SpectraMax Id5), and the inhibition ratios were calculated.

| SMILES | IC50 |
| --- | --- |
| Cc1cc(-c2nnc(-c3ccc(NS(=O)(=O)CCO)cc3N3CCC4(CC3)CC4)o2)c(F)c(N2CCC(F)(F)CC2)n1 [US20250250264, Compound I-53] | 25 nM |
| Cc1cc(-c2nnc(-c3ccc(NS(=O)(=O)CCO)cc3N3CCC4(CC3)CC4)s2)nc(OCCC(F)(F)F)n1 [US20250250264, Compound I-99] | 3 nM |
